According to patent publication US20050266012A1 (priority 2004, published 2005):

Key:
hCgA-pulsed DCs [1] = assay: Ex vivo cytotoxic assay, hCgA-specific cytolysis by splenocytes; type: in vivo; conditions: hCgA-immunized BALB/c mice; 5 mg/kg daily intramuscular for 7 days; P<0.01
Method: (§1) Aldrithiol-2 (AT-2)-inactivated HIV (10^9/50 μl) (LU and ANDRIEU, J. Virol., vol. 75, p: 8949-56, 2001) or human chromogranin A (hCgA, a protein associated with neuro-endocrine tumours (DEGORCE et al., Br. J. Cancer., vol. 79, p: 65-71, 1999); 10 μg/50 μl) plus incomplete Freund's adjuvant (IFA) (50 μl) were injected subcutaneously into 4- to 6-week-old male BALB/c mice (Institute of Laboratory Animal Science, Beijing, China). Mice immunized with AT-2-inactivated HIV (n=12) or hCgA (n=12) were randomly divided into two subgroups. One subgroup (n=6) received daily intramuscular injection of 5-azacytidine (Sigma, St Louis, Mo.) at a dose of 5 mg/kg for 7 days and the other subgroup (n=6) received 0.9% sodium chloride as control. Animals were killed at day 7 for ex vivo analysis. […]
(§2) Splenocytes were taken from 7-day-immunized mice and plated into Micro Tubes-Bulk (Bio-Rad, Hercules, Calif.) in the presence of CFSE (Molecular Probes, PoortGebouw, The Netherlands)-labelled AT-2-HIV- or hCgA-pulsed dendritic cells (DCs) at different E:T ratios for 4 h at 37° C. […] Target cytolysis was analyzed on a FACSCalibur (BD Immunocytometry System, San Jose, Calif.). Virus- or tumour-specific cytolytic activity was determined by calculating the percentage of CFSE/PI-staining DCs after subtraction of the non-specific CFSE/PI-staining of non-pulsed DCs. […]

AT-2-HIV-pulsed DCs [2] = assay: In vivo cytotoxic assay, HIV-specific cytolysis; conditions: AT-2-HIV-immunized BALB/c mice; 5 mg/kg daily intramuscular for 7 days; P<0.01
Method: (§3) Aldrithiol-2 (AT-2)-inactivated HIV (10^9/50 μl) (LU and ANDRIEU, J. Virol., vol. 75, p: 8949-56, 2001) or human chromogranin A (hCgA, a protein associated with neuro-endocrine tumours (DEGORCE et al., Br. J. Cancer., vol. 79, p: 65-71, 1999); 10 μg/50 μl) plus incomplete Freund's adjuvant (IFA) (50 μl) were injected subcutaneously into 4- to 6-week-old male BALB/c mice (Institute of Laboratory Animal Science, Beijing, China). Mice immunized with AT-2-inactivated HIV (n=12) or hCgA (n=12) were randomly divided into two subgroups. One subgroup (n=6) received daily intramuscular injection of 5-azacytidine (Sigma, St Louis, Mo.) at a dose of 5 mg/kg for 7 days and the other subgroup (n=6) received 0.9% sodium chloride as control. Animals were killed at day 7 for ex vivo analysis. In addition, non-immunized mice (n=6) injected with IFA alone were also killed on the same day to establish a background control.
(§4) This assay was performed as described previously (AICHELE et al., Immunity, vol. 6, p: 519-29, 1997). Briefly, target DCs were prepared from BALB/c bone marrow cell suspensions (LUTZ et al., above mentioned, 1999). […] In vivo HIV- or hCgA-specific cytolysis was assessed by calculating the ratio of non-pulsed DCs/pulsed DCs. […]

solid tumors = conditions: phase II trials, variety of doses and schedules; cited from earlier work
latent EBV promoters = conditions: patients with EBV-associated tumors; cited from earlier work
AT-2-HIV-pulsed DCs [3] = assay: Ex vivo cytotoxic assay, HIV-specific cytolysis by splenocytes; type: in vivo; conditions: AT-2-HIV-immunized BALB/c mice; 5 mg/kg daily intramuscular for 7 days; P<0.01
Method: as §1, §2

[4] = test system: relapsed or refractory acute myelogenous leukaemia (AML) and myolodysplastic syndrome (MDS); conditions: cited from earlier work
hCgA-pulsed DCs [5] = assay: In vivo cytotoxic assay, hCgA-specific cytolysis; conditions: hCgA-immunized BALB/c mice; 5 mg/kg daily intramuscular for 7 days; P<0.01
Method: as §3, §4

[6] = test system: P16 transcription from a methylation-silenced promoter; conditions: prostate cancer cells that grow in nude mice; cited from earlier work

Structure (SMILES)	Increase of ex vivo hCgA-specific cytolysis of hCgA-pulsed DCs by splenocytes vs untreated immunized animals (hCgA-pulsed DCs [1]) [fold]	Increase of in vivo HIV-specific cytolysis of AT-2-HIV-pulsed DCs vs untreated immunized animals (AT-2-HIV-pulsed DCs [2]) [fold]	Clinical results of single agent in solid tumors (solid tumors)	CpG methylation of latent EBV promoters in tumor tissues (latent EBV promoters)	Increase of ex vivo HIV-specific cytolysis of AT-2-HIV-pulsed DCs by splenocytes vs untreated immunized animals (AT-2-HIV-pulsed DCs [3]) [fold]	Clinical activity as single agent [4]	Increase of in vivo hCgA-specific cytolysis of hCgA-pulsed DCs vs untreated immunized animals (hCgA-pulsed DCs [5]) [fold]	P16 transcription from a methylation-silenced promoter [6]
Nc1ncn([C@@H]2O[C@H](CO)[C@@H](O)[C@H]2O)c(=O)n1 [5-Azacytidine]	> 2	> 3	uniformly disappointing	reversed the dense CpG methylation	> 2	limited activity	> 3	
CCN(CC)CCNC(=O)c1ccc(N)cc1 [procanaimide]								reactivate the P16 transcription
